Assay results reported in patent US6355785B1, “Guanosine-rich oligonucleotide integrase inhibitors” (Aronex Pharmaceuticals, Inc., priority 1993, dated 2002).
Where two headings read alike, the source gives them in different places. In the oligonucleotide strings, read from the 5' end, every base follows the letter of its sugar. An asterisk marks phosphorothioate; unmarked linkages are phosphodiester. Other units and linkages are bracketed, terminal groups are in braces. A string of capitals states the bases alone. d = 2'-deoxy (DNA)

Columns and labels:
HIV-1DV = experiment: HIV-1 p24 production in SUP T1 cells; type: cell-based; settings: SUP T1, HIV-1DV, four days
SUP T1 cells [1] = test system: SUP T1 cells
HIV-1 RT = HIV-1 RT (Human immunodeficiency virus type 1 group M subtype B, UniProt P04585); experiment: In vitro inhibition of HIV-1 RT (kinetic analysis); type: biochemical
[2] = target: HIV-1 gp120 interaction with CD4 (Human immunodeficiency virus type 1 group M subtype B, UniProt P04578)
HIV-1 strain DV = experiment: HIV-1 induced syncytia formation assay in SUP T1 cells; type: cell-based; settings: SUP T1, HIV-1DV, four days; read-out: IC50 Syn (syncytium inhibition)
[3] = target: T1, FMLV reverse transcriptase (Friend murine leukemia virus, UniProt P26810); experiment: Reverse transcriptase assay (ELOSA); type: biochemical; settings: read-out: inhibitory concentration for 50% reduction in RT activity
T1 construct: Culture media containing FMLV reverse transcriptase (RT) was mixed with various concentrations; endogenous in cells; host or cells: culture medium of FMLV-infected murine fibroblasts (pLRB215)

HSV-2 strain HG52 = experiment: HSV-2 viral yield reduction assay in Vero cells
HSV-1 IE175 promoter = experiment: Eukaryotic in vitro transcription (HeLa cell nuclear extract)
T7 polymerase = T7 polymerase (Escherichia phage T7, UniProt P00573); experiment: Bacterial T7 in-vitro transcription assay; type: biochemical
Experimental: In this assay system, a 2 kb fragment (HindIII to EcoR1) of the FMLV virus (clone 57) was molecularly cloned between the HindIII/EcoR1 sites 10 bp downstream of the bacterial T7 promoter (p275A) or 50 bp downstream of the bacterial T3 promoter (pBSFMLV2). A schematic representation of these two recombinant plasmids can be seen in FIG. 1. Isolated recombinant DNA was then digested with DdeI. Oligonucleotides were then incubated with the digested DNA and the mixture was subjected to in-vitro transcription using either the T7 or T3 bacterial enzymes.

SUP T1 cells [4] = experiment: Cytotoxicity assay, CellTiter 96 (MTS), SUP T1 cells; settings: read-out: TC50 (concentration reducing cell proliferation by 50%); SUP T1, dye (MTS) metabolism assay

T7 polymerase, sequence (P00573 whole entry, the tested form may be a part): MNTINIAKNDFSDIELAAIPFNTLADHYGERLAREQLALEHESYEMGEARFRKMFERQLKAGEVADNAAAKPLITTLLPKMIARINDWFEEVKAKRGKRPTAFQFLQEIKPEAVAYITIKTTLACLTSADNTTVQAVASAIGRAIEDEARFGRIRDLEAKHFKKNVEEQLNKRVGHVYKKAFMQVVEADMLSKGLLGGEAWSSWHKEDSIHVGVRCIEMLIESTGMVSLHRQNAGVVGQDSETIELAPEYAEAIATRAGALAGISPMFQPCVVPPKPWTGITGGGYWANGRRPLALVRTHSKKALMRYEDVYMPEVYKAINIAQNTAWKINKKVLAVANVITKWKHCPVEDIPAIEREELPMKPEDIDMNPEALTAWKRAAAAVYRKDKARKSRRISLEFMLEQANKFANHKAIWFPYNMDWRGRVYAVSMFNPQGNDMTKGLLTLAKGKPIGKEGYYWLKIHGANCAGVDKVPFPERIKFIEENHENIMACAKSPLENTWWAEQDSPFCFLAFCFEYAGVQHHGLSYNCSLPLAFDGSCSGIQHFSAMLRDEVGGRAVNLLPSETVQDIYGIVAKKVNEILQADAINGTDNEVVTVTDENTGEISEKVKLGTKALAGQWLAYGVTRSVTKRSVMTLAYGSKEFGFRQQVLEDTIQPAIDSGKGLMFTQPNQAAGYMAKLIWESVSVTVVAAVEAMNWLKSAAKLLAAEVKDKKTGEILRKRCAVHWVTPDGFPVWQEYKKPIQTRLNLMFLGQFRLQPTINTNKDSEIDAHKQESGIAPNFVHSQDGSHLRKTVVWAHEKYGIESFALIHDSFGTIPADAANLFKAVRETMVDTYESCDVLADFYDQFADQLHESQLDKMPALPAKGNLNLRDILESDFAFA

With “5′-gttgggggttgttggtggggtggtgg-3′ [I100-12] (GTTGGGGGTTGTTGGTGGGGTGGTGG; phosphorothioate backbone, further chemistry not given here) [PT version of I100-00]” the IC50 (HIV-1DV) was under 200 nM, the CC50 (SUP T1 cells [1]) was 18000 nM and the Ki (HIV-1 RT) was 5 nM. It also gave an IC50 (HIV-1 RT; read-out: ID50 (the source's name)) of 15 nM, an IC50 ([2]; read-out: ID50 [CD4], oligo binding to immobilized CD4) of 475 nM and an IC50 ([2]; read-out: ID50 [gp 120], oligo preincubated with soluble gp120) of 80 nM. It also gave an IC50 (HIV-1 strain DV) of 225 nM and an IC50 [3] of under 500 nM.

“B106-97: fully phosphorothioated version of B106-71 (dG*dT*dG*dG*dT*dT*dG*dG*dT*dG*dG*dT*dG*dG*dT*dG*dT*dG*dT*dG*dG*dG*dT*dT*dT*dG*dG*dG*dG*dT*dG*dG*dG*dG*dG*dG; 3' end capped with propanolamine or cholesterol, which one not given here)” was tested, and the “concentration reducing virus by 50%” value (HSV-2 strain HG52) was “same levels as B106-96”.

With “5′-gatccatgtcagtgacactgcgtagatccgatgatccagtcgatg-3′ [I100-11]” the “eukaryotic transcription from HSV-1 IE175 promoter” value (HSV-1 IE175 promoter) was “capable of inhibiting eukaryotic transcription”, the T7 directed transcription (T7 polymerase) was “increased the level of specific transcripts” and the CC50 (SUP T1 cells [4]) was 46500 nM.
